From ChEMBL document CHEMBL3112450, “Synthesis and in vitro antitumor evaluation of primary amine substituted quinazoline linked benzimidazole” (Bioorg Med Chem Lett, 2014)

Tests used:
Format in all cases: functional
[1] = test system: K562; experiment: Cytotoxicity against human K562 cells after 48 hrs by SRB assay; details: K562, 48 h
[2] = test system: RXF 393; experiment: Cytotoxicity against human RXF393 cells assessed as cell growth at 10^-4 M after 48 hrs by SRB assay; details: RXF 393, 48 h, read-out: Activity
[3] = test system: MOLT-4; experiment: Cytotoxicity against human MOLT4 cells assessed as cell growth at 10^-7 M after 48 hrs by SRB assay; details: MOLT-4, 48 h, read-out: Activity
[4] = test system: SK-MEL-2; experiment: Cytotoxicity against human SK-MEL-2 cells assessed as cell growth at 10^-4 M after 48 hrs by SRB assay; details: SK-MEL-2, 48 h, read-out: Activity
[5] = test system: SF-295; experiment: Cytotoxicity against human SF295 cells assessed as cell growth at 10^-4 M after 48 hrs by SRB assay; details: SF-295, 48 h, read-out: Activity
[6] = test system: MDA-MB-435; experiment: Cytotoxicity against human MDA-MB-435 cells assessed as cell growth at 10^-8 M after 48 hrs by SRB assay; details: MDA-MB-435, 48 h, read-out: Activity
[7] = test system: CCRF-CEM; experiment: Cytotoxicity against human CCRF-CEM cells assessed as cell growth at 10^-4 M after 48 hrs by SRB assay; details: read-out: Activity
[8] = test system: SNB-19; experiment: Cytotoxicity against human SNB19 cells assessed as cell growth at 10^-8 M after 48 hrs by SRB assay; details: SNB-19, 48 h, read-out: Activity
[9] = test system: KM12; experiment: Cytotoxicity against human KM12 cells assessed as cell growth at 10^-8 M after 48 hrs by SRB assay; details: KM12, 48 h, read-out: Activity
[10] = test system: HOP-62; experiment: Cytotoxicity against human HOP62 cells assessed as cell growth at 10^-8 M after 48 hrs by SRB assay; details: HOP-62, 48 h, read-out: Activity
[11] = test system: MOLT-4; experiment: Cytotoxicity against human MOLT4 cells assessed as cell growth at 10^-8 M after 48 hrs by SRB assay; details: MOLT-4, 48 h, read-out: Activity
[12] = test system: HL-60(TB); experiment: Cytotoxicity against human HL-60(TB) cells assessed as cell growth at 10^-8 M after 48 hrs by SRB assay; details: HL-60, 48 h, read-out: Activity
[13] = test system: CCRF-CEM; experiment: Cytotoxicity against human CCRF-CEM cells assessed as cell growth at 10^-8 M after 48 hrs by SRB assay; details: read-out: Activity
[14] = test system: TK-10; experiment: Cytotoxicity against human TK10 cells after 48 hrs by SRB assay; details: TK-10, 48 h
[15] = test system: CAKI-1; experiment: Cytotoxicity against human Caki1 cells after 48 hrs by SRB assay; details: CAKI-1, 48 h
[16] = test system: RXF 393; experiment: Cytotoxicity against human RXF393 cells after 48 hrs by SRB assay; details: RXF 393, 48 h
[17] = test system: SK-OV-3; experiment: Cytotoxicity against human SKOV3 cells after 48 hrs by SRB assay; details: SK-OV-3, 48 h
[18] = Cytotoxicity against human OVCAR4 cells after 48 hrs by SRB assay; details: OVCAR-4, 48 h
[19] = test system: U-251; experiment: Cytotoxicity against human U251 cells after 48 hrs by SRB assay; details: U-251, 48 h
[20] = test system: HCC 2998; experiment: Cytotoxicity against human HCC2998 cells after 48 hrs by SRB assay; details: HCC 2998, 48 h
[21] = test system: MDA-MB-231; experiment: Cytotoxicity against human MDA-MB-231 cells assessed as cell growth at 10^-6 M after 48 hrs by SRB assay; details: MDA-MB-231, 48 h, read-out: Activity
[22] = test system: ACHN; experiment: Cytotoxicity against human ACHN cells assessed as cell growth at 10^-6 M after 48 hrs by SRB assay; details: read-out: Activity
[23] = test system: A498; experiment: Cytotoxicity against human A498 cells assessed as cell growth at 10^-6 M after 48 hrs by SRB assay; details: A498, 48 h, read-out: Activity
[24] = Cytotoxicity against human NCI-ADR-RES cells assessed as cell growth at 10^-6 M after 48 hrs by SRB assay; details: read-out: Activity
[25] = Cytotoxicity against human OVCAR4 cells assessed as cell growth at 10^-6 M after 48 hrs by SRB assay; details: OVCAR-4, 48 h, read-out: Activity
[26] = test system: IGROV-1; experiment: Cytotoxicity against human IGROV1 cells assessed as cell growth at 10^-6 M after 48 hrs by SRB assay; details: IGROV-1, 48 h, read-out: Activity
[27] = test system: SK-MEL-28; experiment: Cytotoxicity against human SK-MEL-28 cells assessed as cell growth at 10^-6 M after 48 hrs by SRB assay; details: SK-MEL-28, 48 h, read-out: Activity
[28] = test system: MDA-MB-435; experiment: Cytotoxicity against human MDA-MB-435 cells assessed as cell growth at 10^-6 M after 48 hrs by SRB assay; details: MDA-MB-435, 48 h, read-out: Activity
[29] = test system: LOX IMVI; experiment: Cytotoxicity against human LOXIMVI cells assessed as cell growth at 10^-6 M after 48 hrs by SRB assay; details: read-out: Activity
[30] = test system: SF-539; experiment: Cytotoxicity against human SF539 cells assessed as cell growth at 10^-6 M after 48 hrs by SRB assay; details: SF-539, 48 h, read-out: Activity
[31] = test system: HCC 2998; experiment: Cytotoxicity against human HCC2998 cells assessed as cell growth at 10^-6 M after 48 hrs by SRB assay; details: HCC 2998, 48 h, read-out: Activity
[32] = test system: NCI-H522; experiment: Cytotoxicity against human NCI-H522 cells assessed as cell growth at 10^-6 M after 48 hrs by SRB assay; details: NCI-H522, 48 h, read-out: Activity
[33] = test system: NCI-H23; experiment: Cytotoxicity against human NCI-H23 cells assessed as cell growth at 10^-6 M after 48 hrs by SRB assay; details: NCI-H23, 48 h, read-out: Activity
[34] = test system: CCRF-CEM; experiment: Cytotoxicity against human CCRF-CEM cells assessed as cell growth at 10^-6 M after 48 hrs by SRB assay; details: read-out: Activity
[35] = test system: DU-145; experiment: Cytotoxicity against human DU145 cells assessed as cell growth at 10^-7 M after 48 hrs by SRB assay; details: DU-145, 48 h, read-out: Activity
[36] = test system: PC-3; experiment: Cytotoxicity against human PC3 cells assessed as cell growth at 10^-7 M after 48 hrs by SRB assay; details: PC-3, 48 h, read-out: Activity
[37] = Cytotoxicity against human UO31 cells assessed as cell growth at 10^-7 M after 48 hrs by SRB assay; details: UO-31, 48 h, read-out: Activity
[38] = Cytotoxicity against human NCI-ADR-RES cells assessed as cell growth at 10^-7 M after 48 hrs by SRB assay; details: read-out: Activity
[39] = read-out: LC50 (the source's name)

C=CCn1c(C)nc2cc(Nc3nc(Nc4ccc5nc(C)n(CC=C)c5c4)c4ccccc4n3)ccc21 showed a GI50 [1] of 0.218 µM, a growth at 100 µM [2] of -31% and a growth at 0.1 µM [3] of 91%. The growth at 100 µM [4] was -17%, the growth at 100 µM [5] was -85% and the growth at 0.01 µM [6] was 97%. The growth at 100 µM [7] was -19%, the growth at 0.01 µM [8] was 91% and the growth at 0.01 µM [9] was 96%. The growth at 0.01 µM [10] was 98%, the growth at 0.01 µM [11] was 98% and the growth at 0.01 µM [12] was 98%. It also gave a growth at 0.01 µM [13] of 105%, a GI50 [14] of 0.522 µM and an LC50 [14] of 4.13 µM. It also gave a TGI [14] of 1.71 µM, a GI50 [15] of 1.61 µM and an LC50 (concentration causing 50% net cell kill) [15] of 5.69 µM. For the same compound, the TGI [15] was 3.03 µM, the GI50 [16] was 0.373 µM and the TGI [16] was 1.79 µM. It also gave a GI50 [17] of 1.9 µM, a TGI [17] of 3.77 µM and a GI50 [18] of 0.276 µM. It also gave a TGI [18] of 0.73 µM, a GI50 [19] of 0.177 µM and a TGI [19] of 0.331 µM. The GI50 [20] was 1.2 µM, the LC50 (50% lethal concentration) [20] was 5.03 µM and the TGI [20] was 2.45 µM. It also gave a growth at 1 µM [21] of -62%, a growth at 1 µM [22] of 35% and a growth at 1 µM [23] of 93%. It also gave a growth at 1 µM [24] of 85%, a growth at 1 µM [25] of -16% and a growth at 1 µM [26] of 82%. For the same compound, the growth at 1 µM [27] was 104%, the growth at 1 µM [28] was 32% and the growth at 1 µM [29] was -85%. For the same compound, the growth at 1 µM [30] was 56%, the growth at 1 µM [31] was 63% and the growth at 1 µM [32] was -83%. It also gave a growth at 1 µM [33] of 100%, a growth at 1 µM [34] of -14% and a growth at 0.1 µM [35] of 99%. The growth at 0.1 µM [36] was 96%, the growth at 0.1 µM [37] was 86% and the growth at 0.1 µM [38] was 100%.

Compound C=CCn1c(C)nc2ccc(Nc3nc(Nc4ccc(F)cc4)nc4ccccc34)cc21 has a GI50 [1] of 3.13 µM, an LC50 (concentration killing 50% of cells) [1] greater than 100 µM and a TGI [1] of 11.9 µM. It also gave a growth at 100 µM [2] of -56%, a growth at 0.1 µM [3] of 96% and a growth at 100 µM [4] of -70%. It also gave a growth at 100 µM [5] of -87%, a growth at 0.01 µM [6] of 97% and a growth at 100 µM [7] of -23%. For the same compound, the growth at 0.01 µM [8] was 95%, the growth at 0.01 µM [9] was 95% and the growth at 0.01 µM [10] was 93%. The growth at 0.01 µM [11] was 98%, the growth at 0.01 µM [12] was 94% and the growth at 0.01 µM [13] was 99%. For the same compound, the GI50 [14] was 6.83 µM, the LC50 [14] was 75.5 µM and the TGI [14] was 24.6 µM. For the same compound, the GI50 [15] was 6.86 µM, the LC50 (concentration causing 50% net cell kill) [15] was 92.6 µM and the TGI [15] was 27.5 µM. The GI50 [16] was 1.23 µM, the TGI [16] was 2.57 µM and the CC50 [16, 39] was 5.38 µM. For the same compound, the GI50 [17] was 1.93 µM, the TGI [17] was 3.74 µM and the GI50 [18] was 2.06 µM. It also gave an LC50 [18] greater than 100 µM, a TGI [18] of 5.81 µM and a GI50 [19] of 3.15 µM. It also gave a TGI [19] of 14.9 µM, a CC50 [19, 39] of 48.9 µM and a GI50 [20] of 8.87 µM. For the same compound, the LC50 (50% lethal concentration) [20] was 58.2 µM, the TGI [20] was 23.5 µM and the growth at 1 µM [21] was 85%. For the same compound, the growth at 1 µM [22] was 94%, the growth at 1 µM [23] was 65% and the growth at 1 µM [24] was 96%. It also gave a growth at 1 µM [25] of 85%, a growth at 1 µM [26] of 91% and a growth at 1 µM [27] of 89%. For the same compound, the growth at 1 µM [28] was 90%, the growth at 1 µM [29] was 96% and the growth at 1 µM [30] was 89%. It also gave a growth at 1 µM [31] of 98%, a growth at 1 µM [32] of 91% and a growth at 1 µM [33] of 88%. For the same compound, the growth at 1 µM [34] was 94%, the growth at 0.1 µM [35] was 98% and the growth at 0.1 µM [36] was 92%. For the same compound, the growth at 0.1 µM [37] was 86% and the growth at 0.1 µM [38] was 97%.
